# From ChEMBL document CHEMBL4196068, “Synthesis, molecular modeling and evaluation of α-glucosidase inhibition activity of 3,4-dihydroxy piperidines” (Eur J Med Chem, 2018)
# pIC50: −log10 of the molar value.
# Tests used:
# [1] = Inhibition of Saccharomyces cerevisiae alpha-glucosidase using p-nitrophenyl-alpha-D-glucopyranoside as substrate preincubated for 15 to 20 mins followed by substrate addition measured after 45 to 60 mins by spectrophotometric analysis
# [2] = system: Saccharomyces cerevisiae; assay: Potency index, ratio of acarbose IC50 to compound IC50 for inhibition of Saccharomyces cerevisiae alpha-glucosidase
# [3] = system: Saccharomyces cerevisiae; assay: Potency index, ratio of miglitol IC50 to compound IC50 for inhibition of Saccharomyces cerevisiae alpha-glucosidase
# [4] = system: Saccharomyces cerevisiae; assay: Potency index, ratio of voglibose IC50 to compound IC50 for inhibition of Saccharomyces cerevisiae alpha-glucosidase
pIC50 [1],SMILES,also measured
3.31,O=C(CCc1ccc(O)cc1)Nc1ccc(CCC(=O)N2CC[C@@H](O)[C@H](O)C2)cc1 (relative stereo),
3.57,O=C(Nc1ccc(CCC(=O)N2CC[C@H](O)[C@H](O)C2)cc1)c1ccsc1 (relative stereo),
3.15,O=C(/C=C/c1ccc(C(F)(F)F)cc1)Nc1ccc(CCC(=O)N2CC[C@@H](O)[C@H](O)C2)cc1 (relative stereo),
3.53,O=C(CCc1ccc(O)cc1)N1CC[C@@H](O)[C@@H](O)C1 (relative stereo),
3.00,O=C(CCc1ccccc1)N1CC[C@@H](O)[C@@H](O)C1 (relative stereo),
3.18,O=C(/C=C/c1ccsc1)Nc1ccc(CCC(=O)N2CC[C@H](O)[C@H](O)C2)cc1 (relative stereo),
3.55,O=C(CCc1ccc(O)cc1)Nc1ccc(CCC(=O)N2CC[C@H](O)[C@H](O)C2)cc1 (relative stereo),
3.68,Nc1ccc(CCC(=O)N2CC[C@@H](O)[C@@H](O)C2)cc1 (relative stereo),Ratio IC50 [2]: 2 to 3; Ratio IC50 [3]: 2 to 3; Ratio IC50 [4]: 2 to 3
3.42,CC(C)(C)OC(=O)Nc1ccc(CCC(=O)Nc2ccc(CCC(=O)N3CC[C@H](O)[C@H](O)C3)cc2)cc1 (relative stereo),
3.82,O=C(CCc1ccsc1)N1CC[C@H](O)[C@@H](O)C1 (relative stereo),
3.42,Nc1ccc(CCC(=O)Nc2ccc(CCC(=O)N3CC[C@@H](O)[C@H](O)C3)cc2)cc1 (relative stereo),
3.18,CC(C)(C)OC(=O)Nc1ccc(CCC(=O)N2CC[C@@H](O)[C@@H](O)C2)cc1 (relative stereo),
3.13,O=C(CCc1ccc(C(F)(F)F)cc1)N1CC[C@@H](O)[C@@H](O)C1 (relative stereo),
3.05,O=C(/C=C/c1ccc(C(F)(F)F)cc1)Nc1ccc(CCC(=O)N2CC[C@H](O)[C@H](O)C2)cc1 (relative stereo),
3.32,O=C(CCc1ccc(C(F)(F)F)cc1)Nc1ccc(CCC(=O)N2CC[C@H](O)[C@H](O)C2)cc1 (relative stereo),
3.41,Cn1c(CCC(=O)N2CC[C@@H](O)[C@@H](O)C2)cc2ccccc21 (relative stereo),
3.13,CC(C)(C)OC(=O)Nc1ccc(CCC(=O)Nc2ccc(CCC(=O)N3CC[C@@H](O)[C@H](O)C3)cc2)cc1 (relative stereo),
3.54,Nc1ccc(CCC(=O)N2CC[C@H](O)[C@@H](O)C2)cc1 (relative stereo),
3.05,O=C(/C=C/c1ccsc1)N1CC[C@@H](O)[C@@H](O)C1 (relative stereo),
3.33,O=S(=O)(c1ccc(OC(F)(F)F)cc1)N1CC[C@@H](O)[C@@H](O)C1 (relative stereo),
3.23,O=C(CCc1ccc(N(S(=O)(=O)c2ccc(C(F)(F)F)cc2)S(=O)(=O)c2ccc(C(F)(F)F)cc2)cc1)N1CC[C@H](O)[C@H](O)C1 (relative stereo),
3.13,O=C(CCc1ccc(NS(=O)(=O)c2ccc(F)cc2)cc1)N1CC[C@H](O)[C@H](O)C1 (relative stereo),
3.99,O=C(CCc1ccc(NS(=O)(=O)c2ccc(C(F)(F)F)cc2)cc1)N1CC[C@H](O)[C@H](O)C1 (relative stereo),Ratio IC50 [2]: 3 to 4; Ratio IC50 [3]: 3 to 4; Ratio IC50 [4]: 3 to 4
3.35,O=C(/C=C/c1ccc(O)cc1)N1CC[C@@H](O)[C@@H](O)C1 (relative stereo),
3.61,Nc1ccc(CCC(=O)Nc2ccc(CCC(=O)N3CC[C@H](O)[C@H](O)C3)cc2)cc1 (relative stereo),
3.37,O=C(CCc1ccc(O)cc1)N1CC[C@H](O)[C@@H](O)C1 (relative stereo),
3.46,O=C(/C=C/c1ccc(F)cc1)Nc1ccc(CCC(=O)N2CC[C@H](O)[C@H](O)C2)cc1 (relative stereo),
3.44,C[C@H]1O[C@H](O[C@H]2[C@H](O)[C@@H](O)[C@@H](O[C@H]3[C@H](O)[C@@H](O)C(O)O[C@@H]3CO)O[C@@H]2CO)[C@H](O)[C@@H](O)[C@@H]1N[C@H]1C=C(CO)[C@@H](O)[C@H](O)[C@H]1O (stereo partly specified) [ACARBOSE],
3.34,OCCN1C[C@H](O)[C@@H](O)[C@H](O)[C@H]1CO [MIGLITOL],
3.49,OCC(CO)N[C@H]1C[C@](O)(CO)[C@@H](O)[C@H](O)[C@H]1O [VOGLIBOSE],
